This experiment concerns the target Human GPR35 (Homo sapiens, UniProt Q9HC97, S294R). Put plainly: Alternative Beta-Arrestin Assay (JumpIn 294R Tango U2OS cells, LiveBLAzer-FRET B/G). In kind it is cell-based. Conditions: Human GPR35 expressing JumpIn 294R Tango U2OS cells, 5 hours treatment. The method in brief: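 U2OS Tango cells expressing human GPR35 S294R, plated overnight, exposed to serially diluted compounds for 5 hours. β-lactamase reporter read with LiveBLAzer-FRET B/G (CCF4-AM) after 2 h; EC50 from four-parameter fit, zaprinast as positive control.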

These results are taken from US11053251B2, “GPR35 modulators” (Prometheus Biosciences, Inc., priority 2019, dated 2021).

Human GPR35, sequence (Q9HC97 whole entry S294R): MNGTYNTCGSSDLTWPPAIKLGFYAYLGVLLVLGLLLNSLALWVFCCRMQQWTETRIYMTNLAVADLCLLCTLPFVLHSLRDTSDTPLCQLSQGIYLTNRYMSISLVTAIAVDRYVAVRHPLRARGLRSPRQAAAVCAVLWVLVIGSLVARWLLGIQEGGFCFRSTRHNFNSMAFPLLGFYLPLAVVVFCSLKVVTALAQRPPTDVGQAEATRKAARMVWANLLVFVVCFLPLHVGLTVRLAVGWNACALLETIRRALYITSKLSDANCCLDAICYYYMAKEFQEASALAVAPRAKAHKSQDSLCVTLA

Broadly, the EC50 is the concentration needed to bring the measured effect to its halfway point. As for `CC(Oc1cccc(-c2ccc(-c3nc4[nH]nnc4c(=O)[nH]3)c(OC3CCCC3)c2)c1)C(=O)O` (centres unmarked) [Compound 250, 2-((3′-(cyclopentyloxy)-4′-(7-oxo-6,7-dihydro-3H-[1,2,3]triazolo[4,5-d]pyrimidin-5-yl)-[1,1′-biphenyl]-3-yl)oxy)propanoic acid], the EC50 is at most 10 µM.
With `CCOc1cc(-c2cc(O)cc(OC(CC)C(=O)O)c2)ccc1-c1nc2[nH]nnc2c(=O)[nH]1` (centres unmarked) [Compound 257, 2-((3′-ethoxy-5-hydroxy-4′-(7-oxo-6,7-dihydro-3H-[1,2,3]triazolo[4,5-d]pyrimidin-5-yl)-[1,1′-biphenyl]-3-yl)oxy)butanoic acid], the EC50 was at most 10 µM.
The figure for `CCOc1cc(-c2ccc(F)c(O[C@H](C)C(=O)O)c2)ccc1-c1nc2[nH]nnc2c(=O)[nH]1` [Compound 264, (R)-2-((3′-ethoxy-4-fluoro-4′-(7-oxo-6,7-dihydro-3H-[1,2,3]triazolo[4,5-d]pyrimidin-5-yl)-[1,1′-biphenyl]-3-yl)oxy)propanoic acid] is at most 10 µM; for `CCOc1cc(-c2ccc(F)c(O[C@@H](C)C(=O)O)c2)ccc1-c1nc2[nH]nnc2c(=O)[nH]1` [Compound 265, (S)-2-((3′-ethoxy-4-fluoro-4′-(7-oxo-6,7-dihydro-3H-[1,2,3]triazolo[4,5-d]pyrimidin-5-yl)-[1,1′-biphenyl]-3-yl)oxy)propanoic acid] it is at most 10 µM.
Compound `CCOc1cc(-c2cc(C)cc(O[C@H](C)C(=O)O)c2)ccc1-c1nc2[nH]nnc2c(=O)[nH]1` [Compound 266, (R)-2-((3′-ethoxy-5-methyl-4′-(7-oxo-6,7-dihydro-3H-[1,2,3]triazolo[4,5-d]pyrimidin-5-yl)-[1,1′-biphenyl]-3-yl)oxy)propanoic acid] gave an EC50 of at most 10 µM.
`CCOc1cc(-c2cc(C)cc(O[C@@H](C)C(=O)O)c2)ccc1-c1nc2[nH]nnc2c(=O)[nH]1` [Compound 267, (S)-2-((3′-ethoxy-5-methyl-4′-(7-oxo-6,7-dihydro-3H-[1,2,3]triazolo[4,5-d]pyrimidin-5-yl)-[1,1′-biphenyl]-3-yl)oxy)propanoic acid] gave an EC50 of at most 10 µM.
Turning to `CCOC(=O)C(Oc1cccc(-c2ccc(-c3nc4[nH]nnc4c(=O)[nH]3)c(OCC)c2)c1)C(C)C` (centres unmarked) [Compound 268, ethyl 2-((3′-ethoxy-4′-(7-oxo-6,7-dihydro-3H-[1,2,3]triazolo[4,5-d]pyrimidin-5-yl)-[1,1′-biphenyl]-3-yl)oxy)-3-methylbutanoate], the EC50 is at most 10 µM.
Consider `CCOc1cc(-c2cccc(OC(C(=O)O)C(C)C)c2)ccc1-c1nc2[nH]nnc2c(=O)[nH]1` (centres unmarked) [Compound 269, 2-((3′-ethoxy-4′-(7-oxo-6,7-dihydro-3H-[1,2,3]triazolo[4,5-d]pyrimidin-5-yl)-[1,1′-biphenyl]-3-yl)oxy)-3-methylbutanoic acid], for which the EC50 was at most 10 µM.
The compound `CCOC(=O)COc1cccc(-c2ccc(-c3nc4[nH]nnc4c(=O)[nH]3)c(OC3CCCC3)c2)c1` [Compound 270, ethyl 2-((3′-(cyclopentyloxy)-4′-(7-oxo-6,7-dihydro-3H-[1,2,3]triazolo[4,5-d]pyrimidin-5-yl)-[1,1′-biphenyl]-3-yl)oxy)acetate] showed a concentration giving a half-maximal response (EC50) of at most 10 µM.
The figure for `CC(C)OC(=O)COc1cccc(-c2ccc(-c3nc4[nH]nnc4c(=O)[nH]3)c(OC3CCCC3)c2)c1` [Compound 271, isopropyl 2-((3′-(cyclopentyloxy)-4′-(7-oxo-6,7-dihydro-3H-[1,2,3]triazolo[4,5-d]pyrimidin-5-yl)-[1,1′-biphenyl]-3-yl)oxy)acetate] is at most 10 µM.
In turn, `CCOc1cc(-c2ccc(C)c(OC(CC)C(=O)O)c2)ccc1-c1nc2[nH]nnc2c(=O)[nH]1` (centres unmarked) [Compound 272, 2-((3′-ethoxy-4-methyl-4′-(7-oxo-6,7-dihydro-3H-[1,2,3]triazolo[4,5-d]pyrimidin-5-yl)-[1,1′-biphenyl]-3-yl)oxy)butanoic acid] showed an EC50 of at most 10 µM.
`O=c1[nH]c(-c2ccc(-c3ccc(-c4nnn[nH]4)cc3)cc2OC2CCCC2)nc2[nH]nnc12` [Compound 273, 5-(3-(cyclopentyloxy)-4′-(1H-tetrazol-5-yl)-[1,1′-biphenyl]-4-yl)-3,6-dihydro-7H-[1,2,3]triazolo[4,5-d]pyrimidin-7-one] gave an EC50 of at most 10 µM.
Turning to `CCOc1cc(-c2cccc(C[C@H](N)C(=O)O)c2)ccc1-c1nc2[nH]nnc2c(=O)[nH]1` [Compound 274, (S)-2-amino-3-(3′-ethoxy-4′-(7-oxo-6,7-dihydro-3H-[1,2,3]triazolo[4,5-d]pyrimidin-5-yl)-[1,1′-biphenyl]-3-yl)propanoic acid], the EC50 is at most 10 µM.
The figure for `CCOc1cc(-c2cccc(C[C@@H](N)C(=O)O)c2)ccc1-c1nc2[nH]nnc2c(=O)[nH]1` [Compound 275, (R)-2-amino-3-(3′-ethoxy-4′-(7-oxo-6,7-dihydro-3H-[1,2,3]triazolo[4,5-d]pyrimidin-5-yl)-[1,1′-biphenyl]-3-yl)propanoic acid] is at most 10 µM; for `CCOc1cc(-c2cc(O)cc(OC(C)C(=O)O)c2)ccc1-c1nc2[nH]nnc2c(=O)[nH]1` (centres unmarked) [Compound 276, 2-((3′-ethoxy-5-hydroxy-4′-(7-oxo-6,7-dihydro-3H-[1,2,3]triazolo[4,5-d]pyrimidin-5-yl)-[1,1′-biphenyl]-3-yl)oxy)propanoic acid] it is at most 10 µM; for `CCOc1cc(-c2ccc(O)c(OC(C)C(=O)O)c2)ccc1-c1nc2[nH]nnc2c(=O)[nH]1` (centres unmarked) [Compound 280, 2-((3′-ethoxy-4-hydroxy-4′-(7-oxo-6,7-dihydro-3H-[1,2,3]triazolo[4,5-d]pyrimidin-5-yl)-[1,1′-biphenyl]-3-yl)oxy)propanoic acid] it is at most 10 µM.
For the compound `CCOc1cc(-c2ccc(O)c(OCC(=O)O)c2)ccc1-c1nc2[nH]nnc2c(=O)[nH]1` [Compound 281, 2-((3′-ethoxy-4-hydroxy-4′-(7-oxo-6,7-dihydro-3H-[1,2,3]triazolo[4,5-d]pyrimidin-5-yl)-[1,1′-biphenyl]-3-yl)oxy)acetic acid], the EC50 is at most 10 µM.
The compound `CCOc1cc(-c2cccc(C[C@H](O)C(=O)O)c2)ccc1-c1nc2[nH]nnc2c(=O)[nH]1` [Compound 282, (S)-3-(3′-ethoxy-4′-(7-oxo-6,7-dihydro-3H-[1,2,3]triazolo[4,5-d]pyrimidin-5-yl)-[1,1′-biphenyl]-3-yl)-2-hydroxypropanoic acid] came in with an EC50 of at most 10 µM.
The figure for `CCOc1cc(-c2cccc(C[C@H](OC)C(=O)O)c2)ccc1-c1nc2[nH]nnc2c(=O)[nH]1` [Compound 283, (S)-3-(3′-ethoxy-4′-(7-oxo-6,7-dihydro-3H-[1,2,3]triazolo[4,5-d]pyrimidin-5-yl)-[1,1′-biphenyl]-3-yl)-2-methoxypropanoic acid] is at most 10 µM.
`CCOc1cc(-c2cccc(C[C@@H](O)C(=O)O)c2)ccc1-c1nc2[nH]nnc2c(=O)[nH]1` [Compound 284, (R)-3-(3′-ethoxy-4′-(7-oxo-6,7-dihydro-3H-[1,2,3]triazolo[4,5-d]pyrimidin-5-yl)-[1,1′-biphenyl]-3-yl)-2-hydroxypropanoic acid] returned an EC50 of at most 10 µM.
As for `CCOc1cc(-c2cccc(C[C@@H](OC)C(=O)O)c2)ccc1-c1nc2[nH]nnc2c(=O)[nH]1` [Compound 285, (R)-3-(3′-ethoxy-4′-(7-oxo-6,7-dihydro-3H-[1,2,3]triazolo[4,5-d]pyrimidin-5-yl)-[1,1′-biphenyl]-3-yl)-2-methoxypropanoic acid], the EC50 was at most 10 µM.
`O=C(O)c1ccc(-c2ccc(-c3nc4[nH]nnc4c(=O)[nH]3)cc2[N+](=O)[O-])cc1` [Compound 286, 2′-nitro-4′-(7-oxo-6,7-dihydro-3H-[1,2,3]triazolo[4,5-d]pyrimidin-5-yl)-[1,1′-biphenyl]-4-carboxylic acid]: the EC50 was at most 10 µM.
As for `Nc1cc(-c2nc3[nH]nnc3c(=O)[nH]2)ccc1-c1ccc(C(=O)O)cc1` [Compound 287, 2′-amino-4′-(7-oxo-6,7-dihydro-3H-[1,2,3]triazolo[4,5-d]pyrimidin-5-yl)-[1,1′-biphenyl]-4-carboxylic acid], the 50% effective concentration (EC50) was at most 10 µM.
Turning to `CN(C)c1cc(-c2nc3[nH]nnc3c(=O)[nH]2)ccc1-c1ccc(C(=O)O)cc1` [Compound 288, 2′-(dimethylamino)-4′-(7-oxo-6,7-dihydro-3H-[1,2,3]triazolo[4,5-d]pyrimidin-5-yl)-[1,1′-biphenyl]-4-carboxylic acid], the EC50 was at most 10 µM.
Consider `O=C(O)c1ccc(-c2ccc(-c3nc4[nH]nnc4c(=O)[nH]3)cc2NC2CCCCC2)cc1` [Compound 289, 2′-(cyclohexylamino)-4′-(7-oxo-6,7-dihydro-3H-[1,2,3]triazolo[4,5-d]pyrimidin-5-yl)-[1,1′-biphenyl]-4-carboxylic acid], for which the EC50 is at most 10 µM.
`O=C(O)c1ccc(-c2ccc(-c3nc4[nH]nnc4c(=O)[nH]3)cc2NCc2ccccc2)cc1` [Compound 290, 2′-(benzylamino)-4′-(7-oxo-6,7-dihydro-3H-[1,2,3]triazolo[4,5-d]pyrimidin-5-yl)-[1,1′-biphenyl]-4-carboxylic acid] returned an EC50 of at most 10 µM.
`CCCNc1cc(-c2nc3[nH]nnc3c(=O)[nH]2)ccc1-c1ccc(C(=O)O)cc1` [Compound 291, 4′-(7-oxo-6,7-dihydro-3H-[1,2,3]triazolo[4,5-d]pyrimidin-5-yl)-2′-(propylamino)-[1,1′-biphenyl]-4-carboxylic acid] showed an EC50 of at most 10 µM.
The compound `CCNc1cc(-c2nc3[nH]nnc3c(=O)[nH]2)ccc1-c1ccc(C(=O)O)cc1` [Compound 292, 2′-(ethylamino)-4′-(7-oxo-6,7-dihydro-3H-[1,2,3]triazolo[4,5-d]pyrimidin-5-yl)-[1,1′-biphenyl]-4-carboxylic acid] returned an EC50 of at most 10 µM.
`CCOc1cc(-c2cccc(C[C@H](NC(C)=O)C(=O)O)c2)ccc1-c1nc2[nH]nnc2c(=O)[nH]1` [Compound 293, (S)-2-acetamido-3-(3′-ethoxy-4′-(7-oxo-6,7-dihydro-3H-[1,2,3]triazolo[4,5-d]pyrimidin-5-yl)-[1,1′-biphenyl]-3-yl)propanoic acid]: the EC50 was at most 10 µM.
